In the test the target is T1, CLK4 (Homo sapiens, UniProt Q9HAZ1).
T1 construct: purchased Thermo Fisher Scientific (Life Technologies) SelectScreen
Put plainly: SelectScreen LanthaScreen. It counts as binding. As to conditions: read-out: % displacement. In a few lines: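 Percent values come from Thermo SelectScreen profiling of NU5455, combining activity and binding assays. CSF1R was run in Z'LYTE format at Km app ATP, and CAMK1 in Adapta format with ATP listed at 10.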
(TR-FRET usually uses a lanthanide donor and a delayed reading to cut background.)

Structures are written as SMILES.

T1 sequence (Q9HAZ1 whole entry): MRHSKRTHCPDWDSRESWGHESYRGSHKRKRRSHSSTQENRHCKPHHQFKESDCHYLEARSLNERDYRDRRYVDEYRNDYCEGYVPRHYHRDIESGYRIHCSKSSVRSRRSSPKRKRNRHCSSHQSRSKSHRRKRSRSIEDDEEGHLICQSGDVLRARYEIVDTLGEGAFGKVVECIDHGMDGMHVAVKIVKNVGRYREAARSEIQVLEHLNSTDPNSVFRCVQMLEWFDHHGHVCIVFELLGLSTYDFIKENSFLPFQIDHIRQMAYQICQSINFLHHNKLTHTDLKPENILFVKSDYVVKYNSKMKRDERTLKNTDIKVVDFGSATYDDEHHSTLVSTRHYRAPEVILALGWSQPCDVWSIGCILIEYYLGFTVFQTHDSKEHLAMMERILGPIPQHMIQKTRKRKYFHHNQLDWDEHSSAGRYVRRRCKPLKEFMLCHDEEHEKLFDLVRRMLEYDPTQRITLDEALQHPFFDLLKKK

Turning to `CN(C(=O)CN1CCOCC1)c1ccc2sc3c(-c4cccc5c(=O)cc(N6CC7CCC(C6)O7)oc45)cccc3c2c1` [NU5455], the inhibition at 1 µM came to 1.4%.
